How the values were obtained:
[1] = system: A431 (squamous skin) carcinoma cell line; assay: MTT anti-proliferative assay, A431; assay type: cell-based; details: Homo sapiens, A-431, 72 h; read-out: IC50, μM ± SD, A431
[2] = molecular target: T1, human DNA topoisomerase IIα (Homo sapiens, UniProt P11388); assay: Human DNA topoisomerase IIα activity assay (TopoGEN kit, plasmid based); assay type: biochemical
T1 construct: purchased TopoGEN, Inc

[3] = system: MCF7 (breast) carcinoma cell line; assay: MTT anti-proliferative assay, MCF7; assay type: cell-based; details: Homo sapiens, MCF7, 72 h; read-out: IC50, μM ± SD, MCF7
[4] = system: RPE1 (normal human immortalized retinal pigment epithelial cell line); assay: MTT assay on normal cells, RPE1; assay type: cell-based; details: RPE-1, RPE1 normal (non-cancer) cell line, read-out: IC50, μM ± SD, RPE1
Procedure: In-vitro antitumor screening
The targeted piperidinecarboxamides 24‒51 were screened for their antitumor properties against HCT116 (colon), MCF7 (breast) and A431 (squamous skin) carcinoma cell lines by the standard mitochondrial dependent reduction of yellow MTT [3-(4,5-dimethylthiazol-2-yl)-2,5-diphenyl-tetrazolium bromide] to purple formazan technique.11 Cells were suspended in McCoy’s 5A medium for HCT116, DMEM for MCF-7 and A431 in addition to 1% antibiotic–antimycotic mixture (10000 μg ml-1 potassium penicillin, 10000 μg ml-1 streptomycin sulfate and 25 μg ml-1 amphotericin B), 10% fetal bovine serum and 1% L-glutamine at 37 °C, under 5% CO2 and 95% humidity. Cells were seeded at concentration of 30000 cells per well in fresh complete growth medium in 96-well tissue culture microtiter plates for 24 h. Media was aspirated, fresh complete medium was added and cells were incubated with different concentrations of the tested compound to give a final concentration of [50, 25, 12.5 and 6.25 μM ([…] and 0.375 μM for the high potent analogues)]. 0.5% DMSO was used as negative control and 5-fluorouracil was used as positive control (standard reference). Triplicate wells were prepared for each individual dose. After 72 h of incubation, medium was aspirated, 40 μl MTT salt (2.5 mg ml-1) were added to each well and incubated for further 4 h at 37 °C.
To stop the reaction and dissolve the formed crystals, 150 μl of 10% sodium dodecyl sulfate (SDS) in deionized water were added to each well and incubated overnight at 37 °C. The absorbance was then measured at 570 nm and a reference wavelength of 595 nm.
Data were collected as mean values for experiments performed in triplicates for each individual dose which had been measured by MTT assay. Control experiments did […]
survival was calculated according to equ. (1).
Surviving fraction = … . (1)
The synthesized compounds 24‒51 were also tested against RPE1 (normal human immortalized retinal pigment epithelial cell line) cell to determine the toxicity/selectivity […]
towards normal cells relative to the carcinoma cell lines utilized. The IC50 (concentration […]
was determined using Graph-Pad PRISM version-5 software. Statistical calculations for determination of the mean and standard error values were determined by SPSS 16 […]
8:1 which is the ratio between the data points and the number of QSAR descriptor).
Human DNA topoisomerase IIα inhibitory properties

[5] = system: HCT116 (colon) carcinoma cell line; assay: MTT anti-proliferative assay, HCT116; assay type: cell-based; details: Homo sapiens, HCT-116, 72 h; read-out: IC50, μM ± SD, HCT116

T1 sequence (P11388 whole entry): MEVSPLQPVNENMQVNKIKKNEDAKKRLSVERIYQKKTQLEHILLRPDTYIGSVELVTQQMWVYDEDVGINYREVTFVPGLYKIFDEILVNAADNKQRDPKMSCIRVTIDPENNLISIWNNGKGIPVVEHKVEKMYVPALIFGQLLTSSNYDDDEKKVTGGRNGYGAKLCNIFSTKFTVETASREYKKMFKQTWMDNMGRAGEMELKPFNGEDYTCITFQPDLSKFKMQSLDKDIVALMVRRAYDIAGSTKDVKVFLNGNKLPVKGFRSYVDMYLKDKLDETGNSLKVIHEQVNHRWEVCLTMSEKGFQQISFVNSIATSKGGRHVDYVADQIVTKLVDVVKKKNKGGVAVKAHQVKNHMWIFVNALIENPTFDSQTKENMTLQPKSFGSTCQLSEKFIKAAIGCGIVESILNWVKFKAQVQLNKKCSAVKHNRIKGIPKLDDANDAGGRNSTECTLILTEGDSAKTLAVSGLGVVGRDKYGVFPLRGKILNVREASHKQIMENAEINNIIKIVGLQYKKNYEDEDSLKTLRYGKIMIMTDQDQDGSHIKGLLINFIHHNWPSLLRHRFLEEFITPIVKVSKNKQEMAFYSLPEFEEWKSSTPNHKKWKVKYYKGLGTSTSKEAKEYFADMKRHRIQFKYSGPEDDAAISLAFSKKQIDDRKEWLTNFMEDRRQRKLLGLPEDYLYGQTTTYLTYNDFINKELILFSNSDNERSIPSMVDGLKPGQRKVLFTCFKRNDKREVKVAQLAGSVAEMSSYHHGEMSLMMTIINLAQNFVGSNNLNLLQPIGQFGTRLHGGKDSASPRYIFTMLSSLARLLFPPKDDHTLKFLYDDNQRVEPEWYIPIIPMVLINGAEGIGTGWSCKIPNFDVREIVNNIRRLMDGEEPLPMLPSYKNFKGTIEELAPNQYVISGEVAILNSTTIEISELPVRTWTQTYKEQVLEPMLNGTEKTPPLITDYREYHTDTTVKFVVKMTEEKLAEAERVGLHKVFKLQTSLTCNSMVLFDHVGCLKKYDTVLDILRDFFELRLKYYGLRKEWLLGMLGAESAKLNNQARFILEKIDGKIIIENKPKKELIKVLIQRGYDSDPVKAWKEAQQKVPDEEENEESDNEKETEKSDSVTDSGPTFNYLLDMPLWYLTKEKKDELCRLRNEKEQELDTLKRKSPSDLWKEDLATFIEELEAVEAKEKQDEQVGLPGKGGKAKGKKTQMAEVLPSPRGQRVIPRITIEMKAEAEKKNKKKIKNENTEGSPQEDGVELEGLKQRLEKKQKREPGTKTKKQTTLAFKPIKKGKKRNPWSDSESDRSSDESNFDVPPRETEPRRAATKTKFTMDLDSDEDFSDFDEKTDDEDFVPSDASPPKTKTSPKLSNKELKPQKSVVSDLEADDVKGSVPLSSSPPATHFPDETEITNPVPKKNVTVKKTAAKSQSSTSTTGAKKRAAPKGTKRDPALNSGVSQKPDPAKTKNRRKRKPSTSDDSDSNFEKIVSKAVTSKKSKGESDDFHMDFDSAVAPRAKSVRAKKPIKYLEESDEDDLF

IC50 [1] [µM]	IC50 [2] [µM]	IC50 [3] [µM]	IC50 [5] [µM]	melting point [°C]	Compound	IC50 [4] [µM]
2.57 ± 0.15	41.3 ± 1.6	3.96 ± 0.29	1.44 ± 0.17	221 to 223	Cc1ccc(/C=C2\CN(C(=O)Nc3ccccc3)C/C(=C\c3ccc(C)cc3)C2=O)cc1 [Compound 39, 3,5-Bis[(E)-4-methylbenzylidene]-4-oxo-N-phenylpiperidine-1-carboxamide]	> 50
8.75 ± 0.4	31.5 ± 1.22	4.9 ± 0.26	23 ± 1.82	166 to 168	Cc1ccc(/C=C2\CN(C(=O)NCc3ccccc3)C/C(=C\c3ccc(C)cc3)C2=O)cc1 [Compound 42, N-Benzyl-3,5-bis[(E)-4-methylbenzylidene]-4-oxopiperidine-1-carboxamide]	47 ± 2.17
7.98 ± 1.34	33 ± 1.28	4.89 ± 0.25	1.29 ± 0.19	177 to 179	COc1ccc(/C=C2\CN(C(=O)NCc3ccccc3)C/C(=C\c3ccc(OC)cc3)C2=O)cc1 [Compound 47, N-Benzyl-3,5-bis[(E)-4-methoxybenzylidene]-4-oxopiperidine-1-carboxamide]	> 50

The remaining lines, values behind:

Compound	IC50 [1] [µM]	IC50 [2] [µM]	IC50 [3] [µM]	IC50 [5] [µM]	melting point [°C]	IC50 [4] [µM]
COc1ccc(NC(=O)N2C/C(=C\c3ccc(C)cc3)C(=O)/C(=C/c3ccc(C)cc3)C2)cc1 [Compound 40, N-(4-Methoxyphenyl)-3,5-bis[(E)-4-methylbenzylidene]-4-oxopiperidine-1-carboxamide]	4.9 ± 0.34	40.3 ± 1.56	5.1 ± 0.3	2.73 ± 0.2	230 to 232	> 50
CCNC(=O)N1C/C(=C\c2ccc(C)cc2)C(=O)/C(=C/c2ccc(C)cc2)C1 [Compound 41, N-Ethyl-3,5-bis[(E)-4-methylbenzylidene]-4-oxopiperidine-1-carboxamide]	2.64 ± 0.27	50.2 ± 1.94	4.58 ± 0.28	2.26 ± 0.23	174 to 176	18.9 ± 1.33
COc1ccc(/C=C2\CN(C(=O)Nc3ccccc3)C/C(=C\c3ccc(OC)cc3)C2=O)cc1 [Compound 43, 3,5-Bis[(E)-4-methoxybenzylidene]-4-oxo-N-phenylpiperidine-1-carboxamide]	2.72 ± 0.2	28.3 ± 1.09	3.96 ± 0.23	1.23 ± 0.15	190 to 192	> 50
COc1ccc(/C=C2\CN(C(=O)Nc3ccc(Cl)cc3)C/C(=C\c3ccc(OC)cc3)C2=O)cc1 [Compound 44, N-(4-Chlorophenyl)-3,5-bis[(E)-4-methoxybenzylidene]-4-oxopiperidine-1-carboxamide]	2.85 ± 0.16	46.2 ± 1.79	4.17 ± 0.27	1.11 ± 0.09	185 to 187	> 50
COc1ccc(/C=C2\CN(C(=O)Nc3ccc(OC)cc3)C/C(=C\c3ccc(OC)cc3)C2=O)cc1 [Compound 45, 3,5-Bis[(E)-4-methoxybenzylidene]-N-(4-methoxyphenyl)-4-oxopiperidine-1-carboxamide]	11.3 ± 1.1	39.3 ± 1.52	5.85 ± 0.31	1.38 ± 0.15	212 to 214	> 50
CCNC(=O)N1C/C(=C\c2ccc(OC)cc2)C(=O)/C(=C/c2ccc(OC)cc2)C1 [Compound 46, N-Ethyl-3,5-bis[(E)-4-methoxybenzylidene]-4-oxopiperidine-1-carboxamide]	8.83 ± 1.26	56.2 ± 2.18	5.73 ± 0.33	1.5 ± 0.14	173 to 175	47.7 ± 3.05
